From patent publication US20240216354A1, “IMMUNOMODULATORY IMIDE DRUGS AS ZETA-CHAIN-ASSOCIATED PROTEIN KINASE 70 (ZAP70) AGONISTS AND USES THEREOF” (Dana-Farber Cancer Institute, Inc., priority 2019, published 2024)

Experiments:
[1] = target: T1, Zap-70 (Homo sapiens, UniProt P43403); test: PathScan Phospho-Zap-70 (Tyr319) Sandwich ELISA in Jurkat cells; assay type: cell-based; conditions: lenalidomide (1 and 3 μM) or pomalidomide (1 and 3 μM), 4 h and 8 h, Len<Pom
T1 sequence (P43403 1-619): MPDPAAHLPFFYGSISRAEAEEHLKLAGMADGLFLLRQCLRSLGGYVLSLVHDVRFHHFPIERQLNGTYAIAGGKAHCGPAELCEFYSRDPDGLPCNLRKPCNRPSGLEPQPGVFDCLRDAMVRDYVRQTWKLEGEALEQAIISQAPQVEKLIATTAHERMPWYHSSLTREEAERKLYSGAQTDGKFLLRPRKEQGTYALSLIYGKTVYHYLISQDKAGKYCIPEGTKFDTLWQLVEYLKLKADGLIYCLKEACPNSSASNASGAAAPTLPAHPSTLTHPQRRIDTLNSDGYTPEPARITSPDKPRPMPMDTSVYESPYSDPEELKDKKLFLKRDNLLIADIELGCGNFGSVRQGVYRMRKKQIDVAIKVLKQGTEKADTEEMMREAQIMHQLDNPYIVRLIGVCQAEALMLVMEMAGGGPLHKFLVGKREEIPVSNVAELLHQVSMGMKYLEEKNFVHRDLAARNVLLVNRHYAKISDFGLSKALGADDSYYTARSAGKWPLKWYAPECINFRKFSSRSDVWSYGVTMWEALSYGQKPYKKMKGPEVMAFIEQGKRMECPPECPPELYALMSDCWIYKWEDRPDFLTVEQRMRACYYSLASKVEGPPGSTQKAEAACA
Experimental: (A) Jurkat cells were transfected with scrambled (Sc) siRNA or Zap-70 siRNA. Whole cell lysates were subjected to immunoblotting using indicated Abs. (B) Jurkat cells were treated with lenalidomide ([…]) or pomalidomide (1 and 3 μM) for 4 h and 8 h. Whole cell lysates were subjected to p-Zap ELISA assay. (C) Jurkat whole cell lysates were incubated with pomalidomide-beads in the presence or absence of competitor (1 mM free pomalidomide) for 1 h. After elution, samples were subjected to immunoblotting using anti-Zap-70 Ab. (D) Saturation-transfer difference resulting from the binding of pomalidomide to Zap-70. Pomalidomide is at 320 μM and Zap-70 is approximately 2 μM in deuterated PBS solution. […] (E) Saturation-transfer difference resulting from the binding of pomalidomide to Zap-70 in the presence of 2.56 mMATP. Pomalidomide is at 320 μM and Zap-70 is approximately 2 μM in deuterated PBS solution. […] Note that both ATP and pomalidomide show binding the Zap-70. (F) Non-cell based Zap-70 kinase assay was carried out, according to manufacturer's protocol.
Phosphorylation of Zap-70 was evaluated using PathScan Phospho-Zap-70 (Tyr319) Sandwich ELISA Kit (Cell Signaling Technology), according to manufacturer's protocol.

[2] = target: T1, Zap-70; test: Immunoblotting of p-Zap-70 in KHYG-1 NK cell line; assay type: cell-based; conditions: KHYG-1 cells, pomalidomide 0.25-1 μM, 24 h
Experimental: KHYG-1 cells were cultured with pomalidomide (0.25-1 μM) for 24 h. (A) Whole cell lysates were subjected to immunoblotting using indicated Abs. (B) KHYG-1 cells were incubated with calcein-AM-stained U266 cells for 4 h at the indicated effector/target (E/T) ratios. Percent specific lysis was calculated as described previously. (C) KHYG-1 cells were transfected with Scsi or Zap-70si, and then cultured with pomalidomide (0.25 μM) for 72 h in the absence of IL-2. Viable cell number was determined, and cells were then incubated with calcein AM-labeled U266 target cells for 4 h at indicated effector/target (E/T) ratios. Percent specific lysis was calculated as described previously. (D) After transfection with Scsi or Zap-70si, cells were cultured with lenalidomide or pomalidomide for 72 h. Cell growth was assessed by MTT assay. (E) KHYG-1 cells were transfected with scrambled (Scsi) or CRBNsi. The transfectants were then cultured with pomalidomide (0.5 μM) for 24 h, and whole cell lysates were subjected to immunoblotting using indicated Abs. The arrow indicates CRBN expression. (F) Primary NK cells (#1, #2, #3, #4) were isolated from healthy volunteer's PBMCs, as described in Materials and Methods. NK cells were cultured with pomalidomide (0.5 μM) for 24 h, and whole cell lysates were subjected to immunoblotting using indicated Abs. […] Percent specific lysis was calculated as previously described.

[3] = test system: primary NK cells; test: Primary NK cell viable cell number by trypan-blue dye exclusion; assay type: cell-based, human; conditions: primary NK cells #1, #2, pomalidomide 0-0.5 μM, 24 h
Experimental: Isolated primary NK cells from two healthy volunteers were cultured for 24 h with pomalidomide (0-0.5 μM). Viable cell number was measured by trypan-blue dye exclusion.

[4] = target: T1, Zap-70; test: Immunoblotting of p-Zap-70, p-LAT and p-ERK in PBMCs; assay type: cell-based; parameters: endogenous in cells; host or cells: primary PBMCs, primary T cells and primary NK cells from healthy volunteers
Experimental: (A) PBMCs were cultured with pomalidomide (“Pom”) (0.01-1 μM) for 16 h. […] (B) PBMCs were cultured with pomalidomide (0.1 and 1 μM) for the indicated time periods. (C) PBMCs were cultured with lenalidomide (“Len”) (1 μM) for 16 h. (D) Primary T-cells from healthy volunteer were cultured with pomalidomide (0.25-1 μM) for 16 h. (E) Jurkat cells were cultured with pomalidomide (0.5 and 1 μM) for 16 h. Whole cell lysates were subjected to immunoblotting (A-E) using indicated Abs. (F) Jurkat cells were cultured with pomalidomide (0.01-1 μM) or lenalidomide (0.01-1 μM) for 72 h. Cell growth was assessed by MTT assay.
To characterize the effect of IMiDs on Zap-70 function in immune effector cells, pomalidomide triggered phosphorylation of Zap-70 was evaluated along with its known downstream target linker of activated T-cells (LAT) in PBMCs from healthy volunteers. […] Image J densitometric analysis confirmed 42% increased p-Zap-70 after pomalidomide (1 μM) treatment (FIG. 1A, lower panel). The increased p-Zap-70, p-LAT, as well as downstream p-ERK in PBMCs triggered by pomalidomide is also time-dependent (FIG. 1B). […] Since Zap-70 is a mediator of T-cell receptor signaling, whether IMiDs triggered p-Zap-70 in T cells from healthy volunteers was studied.

increased p-Zap-70, Image J densitometric analysis ([4]; pomalidomide 1 μM, 16 h): 42%
increased p-Zap-70, p-LAT and downstream p-ERK over time ([4]; pomalidomide 0.1 and 1 μM, indicated time periods): time-dependent
Compound: Nc1cccc2c1C(=O)N(C1CCC(=O)NC1=O)C2=O (stereo not shown) [pomalidomide]
p-Zap-70 (Tyr319) by ELISA [1]: increased p-Zap-70 (Tyr319) in a dose-dependent fashion
p-Zap-70 (immunoblotting) [2]: similarly enhanced p-Zap-70 in KHYG-1 cells
NK cell growth (viable cell number) [3]: without significantly effecting NK cell growth
phosphorylation of LAT (immunoblotting) ([4]; 16 h, Pom 0.01-1 μM, Len 1 μM): induced phosphorylation of both Zap-70 and LAT in PBMCs in a dose-dependent fashion
phosphorylation of Zap-70 (immunoblotting) ([4]; 16 h, Pom 0.01-1 μM, Len 1 μM): induced phosphorylation of both Zap-70 and LAT in PBMCs in a dose-dependent fashion
